Test results published in patent US20230132823A1, “BI-FUNCTIONAL COMPOUNDS AND METHODS FOR TARGETED UBIQUITINATION OF ANDROGEN RECEPTOR” (MONTELINO THERAPEUTICS, INC., priority 2020, published 2023).

How the values were obtained:
[1] = target: T1, estrogen receptor alpha (ER) (Homo sapiens, UniProt P03372); experiment: Immunoblot of ER alpha in 22Rv1 cells; assay type: cell-based; conditions: 22Rv1, 24 hours, up to 10 μM
T1 construct: progesterone receptor (PR) a and b, and estrogen receptor alpha (ER); endogenous in cells; host or cells: 22Rv1
T1 sequence (P03372 1-595): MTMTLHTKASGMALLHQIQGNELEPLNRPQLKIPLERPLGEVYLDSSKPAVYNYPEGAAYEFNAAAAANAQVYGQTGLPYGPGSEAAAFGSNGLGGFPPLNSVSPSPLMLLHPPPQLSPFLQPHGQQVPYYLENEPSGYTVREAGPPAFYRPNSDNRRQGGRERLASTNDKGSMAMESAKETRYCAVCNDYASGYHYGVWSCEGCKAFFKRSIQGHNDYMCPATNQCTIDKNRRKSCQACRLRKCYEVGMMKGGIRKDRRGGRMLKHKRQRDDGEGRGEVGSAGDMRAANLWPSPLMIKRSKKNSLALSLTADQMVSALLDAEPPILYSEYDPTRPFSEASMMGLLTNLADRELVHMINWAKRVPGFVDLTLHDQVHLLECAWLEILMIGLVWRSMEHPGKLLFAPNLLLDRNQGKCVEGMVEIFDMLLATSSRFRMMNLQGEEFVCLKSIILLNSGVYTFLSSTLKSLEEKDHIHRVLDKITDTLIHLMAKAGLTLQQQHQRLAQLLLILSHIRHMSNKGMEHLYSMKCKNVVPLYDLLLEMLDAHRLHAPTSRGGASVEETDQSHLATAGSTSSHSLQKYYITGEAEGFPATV
Experimental: Cell Culture. Human CaP cell lines, LNCaP, 22Rv1, VCaP, PC3, and DU145 are obtained from the American Type Culture Collection (ATCC) and maintained in the standard culture media: RPMI-1640 supplemented with 10% fetal bovine serum (FBS). LNCaP, 22Rv1, and VCaP are androgen-responsive cell lines, while PC3 and DU145 are not. To establish SAT resistant CaP cell lines, LNCaP, 22Rv1, and VCaP are treated continuously with 10-50 μM abiraterone, apalutamide, darolutamide, or enzalutamide. After 3-6 months, stable cell lines are established and designated as LNCaP-Abi^R, LNCaP-Apa^R, LNCaP-Daro^R, LNCaP-Enz^R, VCaP-Abi^R, VCaP-Apa^R, VCaP-Daro^R, VCaP-Enz^R, 22Rv1-Abi^R, 22Rv1-Apa^R, 22Rv1-Daro^R and 22Rv1-Enz^R. Unless otherwise specified, the standard culture media for these SAT-resistant cell lines included 10 μM of their respective SAT. For the proteasome inhibitor study, the inhibitors MG132 and Epoxomicin are used. The E3 ligase inhibitors Heclin, Nutlin 3a, Thalidomide, and VH298 are used. […] Mycoplasma contamination is also assessed using a PCR based detection system.
Immunoblot Analysis. […] Cell lysates are then centrifuged and protein in the supernatant is quantified. […] Following the incubation with appropriate secondary antibody, immunoblots are analyzed using SuperSignal West Femto Maximum Sensitivity Substrate (ThermoFisher).

PC3 = PC3 cell proliferation; assay type: cell-based, human; conditions: AR-negative cell line; 1 μM
Experimental: (§1) The human prostate cancer cell line, 22Rv1 has been reported to express a high level of AR-V7. Thus, 22Rv1 was seeded at 50,000 cells/well on a 24-well plate in quadruplicates and treated with test compound in concentrations ranging up to 20 μM for four days. Standard culture media was RPMI-1640 supplemented with 10% fetal bovine serum. The test compound initially was dissolved in DMSO at 50 mM. This stock solution was then diluted as needed for the indicated concentrations. At the end of the four-day period, cells were harvested using 1% trypsin and counted using an automated cell counter.
(§2) Cell Culture. Human CaP cell lines, LNCaP, 22Rv1, VCaP, PC3, and DU145 are obtained from the American Type Culture Collection (ATCC) and maintained in the standard culture media: RPMI-1640 supplemented with 10% fetal bovine serum (FBS). LNCaP, 22Rv1, and VCaP are androgen-responsive cell lines, while PC3 and DU145 are not. To establish SAT resistant CaP cell lines, LNCaP, 22Rv1, and VCaP are treated continuously with 10-50 μM abiraterone, apalutamide, darolutamide, or enzalutamide. […] Mycoplasma contamination is also assessed using a PCR based detection system.

22Rv1 = 22Rv1 cell proliferation assay (Experimental Example 3); assay type: cell-based, human; conditions: for 22Rv1 cell count, % of control: 6 days
Experimental: The human prostate cancer cell line, 22Rv1 has been reported to express a high level of AR-V7. […] Standard culture media was RPMI-1640 supplemented with 10% fetal bovine serum. The test compound initially was dissolved in DMSO at 50 mM. This stock solution was then diluted as needed for the indicated concentrations. […]
(§3) Cell Culture. Human CaP cell lines, LNCaP, 22Rv1, VCaP, PC3, and DU145 are obtained from the American Type Culture Collection (ATCC) and maintained in the standard culture media: RPMI-1640 supplemented with 10% fetal bovine serum (FBS). LNCaP, 22Rv1, and VCaP are androgen-responsive cell lines, while PC3 and DU145 are not. To establish SAT resistant CaP cell lines, LNCaP, 22Rv1, and VCaP are treated continuously with 10-50 μM abiraterone, apalutamide, darolutamide, or enzalutamide. After 3-6 months, stable cell lines are established and designated as LNCaP-Abi^R, LNCaP-Apa^R, LNCaP-Daro^R, LNCaP-Enz^R, VCaP-Abi^R, VCaP-Apa^R, VCaP-Daro^R, VCaP-Enz^R, 22Rv1-Abi^R, 22Rv1-Apa^R, 22Rv1-Daro^R and 22Rv1-Enz^R. Unless otherwise specified, the standard culture media for these SAT-resistant cell lines included 10 μM of their respective SAT. For the proteasome inhibitor study, the inhibitors MG132 and Epoxomicin are used. The E3 ligase inhibitors Heclin, Nutlin 3a, Thalidomide, and VH298 are used. Cell lines obtained from ATCC are confirmed by checking their morphology using optical microscopy, establishing baselines for cell proliferation, verifying species of origin using isoenzymology, and characterizing the cell's DNA fingerprint using short tandem repeat (STR) profiling. Mycoplasma contamination is also assessed using a PCR based detection system.

[2] = system: SAT-resistant CaP cell lines; experiment: Cell proliferation assay in twelve SAT-resistant CaP cell lines; assay type: cell-based, human; conditions: 1 μM, 6 days; all lines except 22Rv1-EnzR
Experimental: as §3, with “system. […]” for “system.”

DU145 = DU145 cell proliferation; assay type: cell-based, human; conditions: AR-negative cell line; 1 μM
Experimental: as §1, §2

Cc1ncsc1-c1ccc([C@H](C)NC(=O)[C@@H]2C[C@@H](O)CN2C(=O)[C@@H](NC(=O)CCCCNC(=O)COc2c(-c3csc(N4CCOCC4)n3)ccc(F)c2F)C(C)(C)C)cc1 [Example 16, (2S,4R)-1-((S)-2-(5-(2-(2,3-difluoro-6-(2-morpholinothiazol-4-yl)phenoxy)acetamido)pentanamido)-3,3-dimethylbutanoyl)-4-hydroxy-N-((S)-1-(4-(4-methylthiazol-5-yl)phenyl)ethyl)pyrrolidine-2-carboxamide]
effect on expression level of estrogen receptor alpha (ER) [1]: no visible effect
effect on PC3 cells (PC3): not affected
22Rv1 cell count, % of control (22Rv1; 0.01 μM): approximately 90 % of control
22Rv1 cell count, % of control (22Rv1; 0.1 μM): ~70 % of control
22Rv1 cell count, % of the control (side to side cell line comparison) (22Rv1; 1 μM): approximately 40 % of the control
22Rv1 cell count, % of control (22Rv1; 1 μM): ~65 % of control
cell counts of SAT-resistant CaP cell lines, % of control [2]: 6-80 % of control
effect on DU145 cells (DU145): not affected
